We go through four compounds from patent US12624039B2, “BTK inhibitors” (DIZAL (JIANGSU) PHARMACEUTICAL CO., LTD., priority 2020, dated 2026).

A short description of data set [1]: Protein binding in human plasma by equilibrium dialysis. Type of data set: in vitro ADME. Particulars: 18 hours at 37° C.; for fraction unbound at 18 h, 5 μM: human, plasma, pH 7.4, human plasma, read-out: hPPB (fu %); for hPPB (fu %): human plasma, 5 μM, fraction unbound. How it is done:
[formula] DF means the dilution factor. Procedure for Protein Binding Measurements in Human Plasma by Using Equilibrium Dialysis
Add 597 μL of blank plasma into each vial of a new plastic plate or separate plastic tube by addition of 3 μL of the working solution of each cassette, vortex at 1,000 rpm for 5 minutes. The final percent volume of organic solvent is 0.5% and the final concentration for test compound is 5 μM. Immediately transfer 50 μL of the spiked plasma suspension to a 96-well plate to act as T=0 control sample. The samples are treated the same as the samples after incubation. Place all remaining spiked plasma in the incubator for the duration of the study.
Place inserts open end up into the wells of the base plate. Add 500 μL of phosphate buffer (pH 7.4) to the buffer chamber, which is indicated by the white ring. Add 300 μL of spiked plasma sample into the sample chamber, which is indicated by the red ring. Cover the unit with gas permeable lid and incubate for 18 hours at 37° C. at 300 rpm with 5% CO2 on an orbital shaker in the CO2 incubator. At the end of incubation, remove lid and pipette 50 μL of post-dialysis samples from both buffer and plasma chambers into separated 96-well plate for analysis, respectively.
At the same time, the remaining spiked plasma sample in the plastic plate or separate plastic tube is incubated for 18 hours at 37° C. with 5% CO2 in the CO2 incubator. At T=18 hours, transfer 50 μL of the original spiked plasma suspension to the 96-well plate for analysis.
Add 50 μL of Human plasma to the buffer samples, and an equal volume of PBS to the collected plasma samples. Vortex the plate at 1,000 rpm for 2 minutes and add 400 μL of acetonitrile containing an appropriate internal standard (IS) to precipitate protein and release compound. Vortex at 1,000 rpm for 10 minutes. Centrifuge for 30 minutes at 4,000 rpm. Transfer 250 μl of the supernatant to new 96-well plates and centrifuge again (4,000 rpm, 30 minutes). Then transfer 100 μL of the supernatant to new 96-well plates for analysis. Add 100 μL of distilled water to each sample and vortex for 5 minutes at 1,000 rpm for analysis by LC-MS/MS. All compounds are tested in singlicate at 5 μM in human plasma.
All calculations are carried out using Microsoft Excel.
Calculate the percentage of unbound, percentage of bound and recovery of test compound as follows: […]
In general terms: In equilibrium dialysis only unbound substance equilibrates across the membrane.

Data set [2] addresses T1, Recombinant BTK wild type (BTK WT) (Homo sapiens, UniProt Q06187).
T1 construct: purchased Thermo fisher
Nature of the data set: BTK WT HTRF kinase assay. In kind it is biochemical. Particulars: 30 min pre-incubation, 120 min reaction. As for the experimental part: Recombinant BTK wild type (BTK WT) was purchased from Thermo fisher.
In brief, recombinant kinases were pre-incubated in the presence or absence of compound at room temperature for 30 minutes. The reaction was initiated by the addition of the ATP and substrate peptide which could be phosphorylated by kinases in the reaction. After 120 minutes incubation, the reaction was stopped by the addition of the detection reagent mix containing EDTA.

The target in data set [3] is T2, p-BTK (Phospho-Btk Tyr223) in TMD-8 cells (Homo sapiens, UniProt Q06187).
T2 construct: endogenous in cells; host or cells: TMD-8
Nature of the data set: TMD8 cell line p-BTK Elisa assay. Particulars: for Maximal Inhibition Level: p-BTK ELISA; for IC50: pervanadate 100 μM, Tyr223 ELISA. Type of data set: cell-based. How it is done: The test compounds were added to the cells and cells were incubated for 0.5 hour at 37° C., 5% CO2. Then pervanadate solution was added to the cells to make a final concentration of 100 μM, and cells were incubated for a further 1 hour at 37° C., 5% CO2. […] The plate was read on a Multiscan Spectrum reader set to 450 nm wavelengths.
For orientation: In an ELISA, binding on a coated surface is turned into a signal by an enzyme label.

The next data set can be described thus: Hu Mic Clint. Type of data set: in vitro ADME, human.
The nature of data set [4]: In vitro human hepatocytes clearance assay. Type of data set: in vitro ADME. As for the experimental part: (§1) In Vitro Rat/Human Hepatocytes Clearance Assay
(§2) Rat hepatocytes in male gender and human hepatocytes in mixed gender were obtained from commercial vendors (e.g., BioreclamationIVT) and stored at −150° C. prior to use. 10 mM stock solutions of tested compounds were prepared in DMSO. Thawing medium and supplement incubation medium (serum-free) were placed in a 37° C. water bath for at least 15 minutes prior to use. Stock solutions were diluted to 100 μM by combining 198 μL acetonitrile and 2 μL of 10 mM stock solution.
(§3) Vials of cryopreserved hepatocytes were removed from storage, ensured that vials remain at cryogenic temperatures. The vials were thawed in a 37° C. water bath with gently shaking. Vials were kept in a water bath until all ice crystals had dissolved and were no longer visible. Vials were sprayed with 70% ethanol before being transferred to a biosafety cabinet. And then the contents were poured into the 50 mL thawing medium conical tube. Vials were centrifuged at 100 g for 10 minutes at room temperature. Thawing medium was aspirated and hepatocytes were resuspended with serum-free incubation medium to yield ^˜1.5×10^6 cells/mL.
(§4) Cell viability and density were counted using a Trypan Blue exclusion, and then cells were diluted with serum-free incubation medium to a working cell density of 1×10^6 viable cells/ml. A portion of the hepatocytes at 1×10^6 viable cells/mL was boiled for 10 min prior to adding to the plate as negative control to eliminate the enzymatic activity so that little or no substrate turnover should be observed. The inactivated hepatocytes were used to prepare negative samples, which were used to exclude the misleading factor that resulted from instability of chemical itself.
(§5) Aliquots of 247.5 μL hepatocytes were dispensed into each well of a 96-well non-coated plate. The plate was placed in the incubator on an orbital shaker for approximately 10 minutes. Aliquots of 2.5 μL of the 100 μM test compounds were added into respective wells of the non-coated 96-well plate to start the reaction. This assay was performed in duplicate. The plate was incubated in the incubator on an orbital shaker for the designed time points. 20 μL of contents were transferred and mixed with 6 volumes (120 μL) of cold acetonitrile with internal standard to terminate the reaction at time points of 5, 15, 30, 45, 60, 80 and 100 minutes. Samples were centrifuges for 20 minutes at 4000 g and aliquots of 100 μl of the supernatants were used for LC-MS/MS analysis for measurement of test compounds.
(§6) In vitro hepatocyte clearance was estimated based on determination of elimination half-life (T1/2) of compounds disappearance from their initial concentrations. Peak area ratios of each compound (test or control) to IS was calculated. Ln (% Control) versus Incubation Time (min) curve was plotted, and the slope of a linear fitting line was calculated. Drug elimination rate constant k (min-1), T1/2 (min), and in vitro intrinsic clearance CLint (μL/min/E6) was calculated according to the following equations: k=−slope T1/2=0.693/k CLint=k/Chep • Where Chep (cells×μL-1) is the cell concentration in the incubation system. Procedure for Log D Determination

The nature of data set [5]: In vitro rat hepatocytes clearance assay. Type of data set: in vitro ADME. As for the experimental part:
as §1, §2, §3, §4, §5, §6

A value given as a limit tells only on which side of the number the result lay.

T1 sequence (Q06187 whole entry): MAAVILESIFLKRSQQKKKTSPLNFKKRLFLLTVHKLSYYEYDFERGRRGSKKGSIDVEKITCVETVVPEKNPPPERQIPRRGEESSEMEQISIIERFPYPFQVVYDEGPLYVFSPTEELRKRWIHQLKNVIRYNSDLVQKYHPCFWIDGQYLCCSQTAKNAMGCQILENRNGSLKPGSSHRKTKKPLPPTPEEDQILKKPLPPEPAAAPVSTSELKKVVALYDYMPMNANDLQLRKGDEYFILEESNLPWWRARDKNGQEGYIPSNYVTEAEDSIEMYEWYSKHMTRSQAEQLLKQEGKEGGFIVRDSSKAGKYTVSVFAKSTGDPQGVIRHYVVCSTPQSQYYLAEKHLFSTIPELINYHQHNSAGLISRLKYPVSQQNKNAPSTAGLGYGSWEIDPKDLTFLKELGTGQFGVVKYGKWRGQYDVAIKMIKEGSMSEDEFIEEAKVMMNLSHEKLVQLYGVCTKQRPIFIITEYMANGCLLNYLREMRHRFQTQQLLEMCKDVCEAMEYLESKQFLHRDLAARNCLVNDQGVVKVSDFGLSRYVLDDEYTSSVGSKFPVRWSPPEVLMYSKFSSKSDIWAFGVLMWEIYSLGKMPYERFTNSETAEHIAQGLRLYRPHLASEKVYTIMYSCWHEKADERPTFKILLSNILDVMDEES
T2 sequence (Q06187 whole entry): as above

Broadly, the IC50 is the concentration that inhibits the measured activity by half. Broadly, the microsomal CLint is the rate of metabolic loss divided by the concentration. High values mean faster metabolism, low ones greater metabolic stability. Turning to `Nc1ncnn2c(C3CCC(CO)OC3)nc(-c3ccc(Oc4ccccc4)c(F)c3F)c12` (stereo not shown) [Compound 12, (5-(4-amino-5-(2,3-difluoro-4-phenoxyphenyl)imidazo[1,5-f][1,2,4]triazin-7-yl)tetrahydro-2H-pyran-2-yl)methanol], the fraction unbound at 18 h, 5 μM in data set [1] turned out to be 0.074. Moreover, the IC50 in data set [2] turned out to be 0.27 nM; in data set [3], 23.2 nM. Further, the “Maximal Inhibition Level” value in data set [3] was found to be 97.0%. Further, the microsomal CLint in “Hu Mic Clint” (human, microsomes) is < 3 µL/min/mg. In data set [4], the “Human Hep Clint” value was 2.0 μL/min/10∧6 cells. In addition, the “Rat Hep Clint” value in data set [5] is on record as 46.8 μL/min/10∧6 cells.
Turning to `Nc1nccn2c(C3CCC(CO)OC3)nc(-c3ccc(Oc4ccccc4)cc3F)c12` (single isomer, unassigned) [Compound 3, Trans-(5-(8-amino-1-(2-fluoro-4-phenoxyphenyl)imidazo[1,5-a]pyrazin-3-yl)tetrahydro-2H-pyran-2-yl)methanol], in data set [1], the “hPPB (fu %)” value amounted to 11.9%. Also, in data set [2], the IC50 came to 6.29 nM. Besides, in data set [3], the “Maximal Inhibition Level” value is 96.2% and the IC50 was 78.4 nM. Also, in the data set “Hu Mic Clint”, the “Hu Mic Clint” value stood at 23.7 µL/min/mg. In data set [4], the “Human Hep Clint” value was determined as 12.9 μL/min/10∧6 cells. In data set [5], the “Rat Hep Clint” value came to 8.8 μL/min/10∧6 cells.
With `Nc1ncnn2c(C3CCC(CO)OC3)nc(-c3ccc(Oc4ccccc4)cc3F)c12` (single isomer, unassigned) [Compound 9, (5-(4-amino-5-(2-fluoro-4-phenoxyphenyl)imidazo[1,5-a][1,2,4]triazin-7-yl)tetrahydro-2H-pyran-2-yl)methanol], the “hPPB (fu %)” value in data set [1] was 5.8%. Moreover, the concentration for half-maximal inhibition (IC50) in data set [2] was determined as 8.64 nM; in data set [3], 124 nM. Further, in data set [3], the “Maximal Inhibition Level” value was 107.7%. The “Hu Mic Clint” value in “Hu Mic Clint” was 34.3 µL/min/mg. In data set [4], the “Human Hep Clint” value is 5.9 μL/min/10∧6 cells. The “Rat Hep Clint” value in data set [5] turned out to be 27.2 μL/min/10∧6 cells.
For `Nc1ncnn2c(C3CCC(CO)OC3)nc(-c3ccc(Oc4ccccc4)cc3F)c12` (single isomer, unassigned) [Compound 8, (5-(4-amino-5-(2-fluoro-4-phenoxyphenyl)imidazo[5,1-f][1,2,4]triazin-7-yl)tetrahydro-2H-pyran-2-yl)methanol], the fraction unbound at 18 h, 5 μM in data set [1] amounted to 0.093. Besides, the IC50 turned out to be 3.45 nM in data set [2] and 42.1 nM in data set [3]. In data set [3], the “Maximal Inhibition Level” value is 100.9%. In addition, the “Hu Mic Clint” value in “Hu Mic Clint” was determined as 41.3 µL/min/mg. Besides, the “Human Hep Clint” value in data set [4] is 6.1 μL/min/10∧6 cells. For the same compound, the “Rat Hep Clint” value in data set [5] came out at 48.5 μL/min/10∧6 cells.
